Among the data in PubChem BioAssay (NCI) are TGI and GI50 values, retold here.

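Where inhibition never reached the appropriate level, the endpoint shown equals the highest concentration tested. Otherwise, values were interpolated linearly from a five-concentration, 48-hour dose response in 96-well plates. Here, GI50 denotes the concentration required for 50% inhibition of growth. TGI is the concentration that stops growth completely.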

What all share (test): DTP human tumour cell line panel, 48 h
In assay [1] the test system is A549 NSCLC.
Assay [2] concerns HCC-2998 colon.
Assay [3] relates to HOP-62 NSCLC.
For assay [4], the system named is MOLT-4 leukemia.
Assay [5] deals with OVCAR-8 ovarian.
Assay [6] has as its system SF-295 CNS.
Assay [7] concerns SNB-19 CNS.
For assay [8], the system named is U251 CNS.
For assay [9], the system named is MDA-MB-231 breast.
In assay [10] the test system is PC-3 prostate.

Take `FC(F)(F)P1C2C=CC(CC2)C1(F)F` (stereo not given): the total growth inhibition concentration (TGI) in assay [1], in assay [2], in assay [3], in [4], in assay [5] and in assay [6] was more than 100 µM in each case. The TGI in assay [7] and in assay [8] was more than 100 µM in each case.

`CC(O)c1c2c(cc3c1CC1(C3)Cc3cc4c(c(C(C)O)c3C1)CCC4)CCC2` (stereo not given): the total growth inhibition concentration (TGI) – broadly, the concentration giving total growth inhibition – in [1] is 33.1 µM; in [2], 40.2 µM; in [3], 38.8 µM; in [9], 34.8 µM; in [4], 26.3 µM; in assay [5], more than 100 µM. For the same molecule, the TGI in [10] was 34.9 µM; in [6], 45.2 µM; in assay [8], 29.3 µM.

For `O=C(O)C(CS)NCc1c2ccccc2[n+]([O-])c2ccccc12` (stereo not given), the total growth inhibition concentration (TGI) in assay [1] is more than 100 µM; in [2], more than 100 µM; in assay [3], more than 100 µM; in assay [4], 78.9 µM; in assay [5], more than 100 µM; in [6], more than 100 µM. Also, the concentration for total growth inhibition (TGI) in assay [7] and in [8] was more than 100 µM throughout.

`O/N=c1/ccn(O)c2ccccc12`: the total growth inhibition concentration (TGI) in assay [1] was found to be 6.74 µM; in assay [2], 0.998 µM; in [3], 9.43 µM; in assay [9], 5.4 µM; in [5], 1.81 µM; in [10], 8.88 µM. In addition, the total growth inhibition concentration (TGI) was 2.9 µM in [6], 14.1 µM in assay [7] and 6.65 µM in assay [8].

`COc1c(Cl)ccc(Cl)c1C(=O)NNC(=O)c1c(Cl)c(Cl)c(Cl)c(Cl)c1-c1nc2ccc(C(=O)c3ccccc3)cc2[nH]1`: the TGI in assay [1], in [3], in assay [9], in assay [4], in [5] and in [10] was more than 100 µM throughout. Also, the TGI in assay [6], in [7] and in assay [8] was more than 100 µM throughout.

Turning to `O=C(O)CCC(NC(=O)c1ccc(Nc2nc3ccccc3nc2C(=O)O)cc1)C(=O)O` (stereo not given), the TGI in [1], in assay [2], in [3], in assay [9], in assay [4] and in assay [5] was more than 100 µM throughout. Besides, the concentration for total growth inhibition (TGI) in assay [6], in assay [7] and in assay [8] was more than 100 µM throughout.

With `O=[N+]([O-])c1ccc(Cl)cc1-n1nc(-c2ccccc2)cc1-c1ccccc1`, the TGI in assay [1], in [2], in assay [9], in [4], in assay [5] and in assay [10] was more than 100 µM each time. Besides, the TGI in [6], in [7] and in assay [8] was more than 100 µM in each case.

Take `Cc1c(C(=O)CSc2nc3ccc([N+](=O)[O-])cc3[nH]2)c(=O)n(-c2ccccc2)n1C`: the TGI in assay [1], in assay [2], in assay [3], in assay [4], in assay [5] and in assay [6] was more than 100 µM throughout. The TGI in [7] and in assay [8] was more than 100 µM each time.

Take `CC(C)C1CC=NN1C(=O)OC(C)(C)C` (stereo not given): the TGI in [1], in [2], in assay [3], in assay [4], in assay [5] and in assay [6] was more than 100 µM in each case.

On to `CN(C)CCN1C(=O)CC[C@@]2(C)C1=CC[C@@H]1[C@@H]2CC[C@@]2(C)[C@H]1CC[C@]2(C)O`, for which the concentration for total growth inhibition (TGI) in assay [1], in assay [3], in assay [9], in assay [4], in assay [5] and in [10] was more than 100 µM each time. Moreover, the TGI in assay [6], in assay [7] and in assay [8] was more than 100 µM in each case.

Regarding `CC(=O)O[C@H]1C(=O)[C@@]2(C)C([C@H](OC(=O)c3ccccc3)[C@]3(O)C[C@H](OC(=O)[C@H](O)[C@H](NC(=O)c4ccccc4)c4ccc(Cl)cc4)C(C)=C1C3(C)C)C1(OC(C)=O)CO[C@@H]1C[C@@H]2O` (stereo not given in full), the TGI in assay [1] was found to be 24.4 µM; in assay [2], 0.0105 µM; in assay [3], 26.5 µM; in assay [4], 2.36 µM; in [5] it was 61.9 µM; in assay [7], 45.3 µM. The concentration for 50% growth inhibition (GI50) (usually the concentration at which growth is held to half of that of the control) in [3] was 0.0321 µM; in [6], 0.0167 µM.

Consider `CCN(CC)CCNC(=O)c1ccc([N+](=O)[O-])cc1OC`, for which the TGI in assay [1], in assay [3], in [4], in [5], in [6] and in assay [7] was more than 100 µM in each case. The molecule further returned a TGI in assay [8] of more than 100 µM.

Consider `COc1cc([C@@H]2c3cc4c(cc3[C@H](OC3OC5COC(C(C)C)OC5C(O)C3O)C3COC(=O)[C@@H]32)OCO4)cc(OC)c1O` (stereo not given in full), for which the total growth inhibition concentration (TGI) in assay [1] is 21.8 µM; in assay [3], 24.4 µM; in assay [9], 28.8 µM; in assay [4], more than 100 µM; in assay [5], 25.9 µM; in [10] it was 14.4 µM. For the same molecule, the figures for the concentration for total growth inhibition (TGI) in assay [6], in assay [7] and in assay [8] were 21.7 µM, 30.1 µM and 10.5 µM, respectively.

For `Cc1cc(S(N)(=O)=O)c(SCc2nc(N)nc(N(C)C)n2)cc1Cl`, the total growth inhibition concentration (TGI) in [1], in assay [2], in assay [3], in assay [4], in [5] and in [10] was more than 10 µM each time. Further, the TGI in assay [6], in assay [7] and in assay [8] was more than 10 µM throughout.

For the molecule `COC(=O)[C@@H]1C=C[C@@H](C#N)n2c(=O)n(-c3ccccc3)c(=O)n21`, the TGI in assay [2] is more than 100 µM; in assay [3], 56.2 µM; in [9] it was 93.6 µM; in assay [4], 67.1 µM; in assay [5], 57.8 µM; in assay [6] it was more than 100 µM. In addition, the total growth inhibition concentration (TGI) in assay [7] and in assay [8] was more than 100 µM in each case.
